{"source": "patent US10314799B2", "about": "(priority 2015, dated 2019)", "key": {"[1]": {"tested_on": "PEDV", "settings": "Virus Research (2013), 171(1), 44-53; cited from earlier work"}, "[2]": {"tested_on": "porcine epidemic diarrhea", "test": "Treatment of porcine epidemic diarrhea of weaned piglets, care pigs and finishing pigs", "format": "in vivo", "settings": "300 mg per kilogram of body weight per day", "description": "Treatment of the porcine epidemic diarrhea on the weaned piglets, the care pigs and the finishing pigs with taurine was implemented by orally administering taurine to the pigs, wherein the administration may be carried out by means of feeding in water or mixed feeding.\nDrug administration time: the administration was carried out from the day of occurrence of the disease, and in consideration of the use-cost, the drug administration time is preferably 3-30 days, and more preferably 7-14 days. The effect is subject to an obvious time-effect relationship.\nDrug administration dosage: 0.1-2% of taurine was added in the daily-drinking water for the pigs to drink freely; or 0.2-5% of taurine was added into the feed, which is equivalent to a dosage of 100-10000 mg per kilogram of body weight per day of taurine, and the administration was in a single dose or in divided doses. The effect is subject to an obvious quantity-effect relationship.\nSpecific operations: 60 diseased weaned piglets, 60 diseased care pigs and 60 diseased finishing pigs were selected, and were randomly divided into two groups equivalently. Control group: conventional supportive therapy (fluid infusion+antibiotic therapy+atropine sulfate); experimental group: treatment with taurine (the dosage of taurine was 300 mg per kilogram of body weight per day)."}, "[3]": {"tested_on": "porcine epidemic diarrhea", "test": "Treatment of porcine epidemic diarrhea of newborn suckling piglets (piglets and lactating sows treated)", "format": "in vivo, pigs", "settings": "diseased newborn suckling piglets; 100 g per sow per day, 0.2 g per piglet per day", "description": "Treatment of the porcine epidemic diarrhea on newborn piglets with taurine was implemented by orally administering a taurine solution to diseased suckling piglets and administering taurine to lactating sows, that is, simultaneous treatment of both the suckling piglets and the lactating sows.\nDrug administration time: the administration by drenching/mixed-feeding was carried out on the day when the disease occurred in the suckling piglets and a non-interrupted administration lasted for 3-10 days. Lactating sows: non-interrupted oral administration lasted for 5-10 days.\nDrug administration dosage: the administration by drenching and/or mixed-feeding was carried out on the day when the disease occurred in the suckling piglets. The administration by drenching: 2% taurine solution at a dosage of 1-5 mL per time and it was taken 2-6 times per day. The administration by mixed-feeding: 1-20 g/L of taurine solution was drunk freely. Lactating sows: each sow was administered with 5-500 g of taurine per day and the administration was in a single dose or in divided doses.\nSpecific operations: 40 litters of diseased newborn suckling piglets and sows thereof were selected and randomly divided into two groups equivalently. Control group: conventional supportive therapy (fluid infusion+antibiotic therapy+atropine sulfate); experimental group: treatment with taurine."}, "[4]": {"tested_on": "porcine transmissible gastroenteritis", "format": "in vivo, pigs"}, "[5]": {"tested_on": "PEDV", "test": "Prevention of porcine epidemic diarrhea of newborn piglets by orally administering taurine to PEDV-carried pregnant sows", "format": "in vivo, pigs", "settings": "taurine 50 g per sow per day, oral", "source_text": "Prevention of the porcine epidemic diarrhea on the newborn piglets with taurine was implemented by orally administering taurine to pregnant sows.\nDrug administration time: 3-30 days before birth of piglets until 15 days after birth of piglets. In consideration of a use-cost, the drug administration time is preferably 5-20 days before birth of piglets until 10 days after birth of piglets, and more preferably 7-14 days before birth of piglets until 5 days after birth of piglets. The effect is subject to an obvious time-effect relationship. The drug administration time for before birth of piglets directly determines a disease incidence of the newborn piglets.\nDrug administration dosage: each pregnant sow was administered with 5-500 g of taurine per day, and the administration was in a single dose or in divided doses. The effect is subject to an obvious quantity-effect relationship.\nSpecific operations: pregnant sows were selected and excrement thereof was tested by RT-PCR to determine the pregnant sows carrying PEDV in vivo. 60 PEDV-carried pregnant sows were divided into two groups randomly. Control group: conventional feeding; experimental group: conventional feeding+50 g per sow per day of taurine."}, "[6]": {"tested_on": "porcine epidemic diarrhea", "test": "Prevention of porcine epidemic diarrhea of weaned piglets, care pigs and finishing pigs", "format": "in vivo", "settings": "200 mg per kilogram of body weight per day", "description": "Prevention of the porcine epidemic diarrhea on the weaned piglets, the care pigs and the finishing pigs with taurine was implemented by orally administering taurine to a swine herd, wherein the administration may be carried out by means of feeding in water or mixed feeding.\nDrug administration time: a preventative administration was carried out during an epidemic period of the disease, or in autumn, winter and spring when the temperature was low and changed greatly, that is, in the season when the porcine epidemic diarrhea frequently occurs. Generally, the administration can be carried out for a long-term. In consideration of the use-cost, the drug administration time is preferably 3-30 days, and more preferably, 7-14 days. The effect is subject to an obvious time-effect relationship.\nDrug administration dosage: 0.005-2% of taurine was added in daily-drinking water for the pigs to drink freely; or 0.01-5% of taurine was added into the feed, which is equivalent to a dosage of 50-10000 mg per kilogram of body weight per day of taurine, and the administration was in a single dose or in divided doses. The effect is subject to an obvious quantity-effect relationship.\nSpecific operations: 120 healthy weaned piglets, 120 healthy care pigs and 120 healthy finishing pigs were selected and randomly divided into two groups equivalently. Control group: conventional feeding; experimental group: conventional feeding+taurine (the dosage of taurine was 200 mg per kilogram of body weight per day)."}, "[7]": {"tested_on": "rotavirus diarrhea", "test": "Treatment of rotavirus diarrhea", "format": "in vivo, pigs"}, "[8]": {"tested_on": "pseudorabies viral diarrhea", "format": "in vivo, pigs"}, "[9]": {"tested_on": "epidemic diarrhea", "settings": "orally administered to diseased piglets, specific dose; cited from earlier work"}, "[10]": {"settings": "care pigs, dosage as in Embodiment 4"}, "[11]": {"settings": "finishing pigs, dosage as in Embodiment 4"}, "[12]": {"settings": "newborn piglets, dosage as in Embodiment 2"}, "[13]": {"settings": "weaned piglets, dosage as in Embodiment 4"}}, "note": "Like-named read-outs stand apart in the source and are kept apart here.", "data": [{"compound": "NC(=O)c1ncn([C@@H]2O[C@H](CO)[C@@H](O)[C@H]2O)n1", "note": "[Ribavirin]", "values": [{"measurement": "inhibition of replication of PEDV", "setting": "[1]", "value": "capable of inhibiting replication of PEDV"}]}, {"compound": "NCCS(=O)(=O)O", "note": "[taurine, β-aminoethanesulfonic acid]", "values": [{"measurement": "Prognosis", "setting": "[2]; diseased care pigs", "value": "Good"}, {"measurement": "Survival rate (%)", "setting": "[2]; diseased care pigs", "value": 93.3, "unit": "%"}, {"measurement": "Prognosis", "setting": "[2]; diseased finishing pigs", "value": "Good"}, {"measurement": "Survival rate (%)", "setting": "[2]; diseased finishing pigs", "value": 100, "unit": "%"}, {"measurement": "Prognosis", "setting": "[2]; diseased weaned piglets", "value": "Good"}, {"measurement": "Survival rate (%)", "setting": "[2]; diseased weaned piglets", "value": 90.0, "unit": "%"}, {"measurement": "10-day-aged survival rate (%)", "setting": "[3]", "value": 22.5, "unit": "%"}, {"measurement": "Prognosis", "setting": "[3]", "value": "Good"}, {"measurement": "Weaned survival rate", "setting": "[3]", "value": 20.7}, {"measurement": "Prognosis", "setting": "[4]; [10]", "value": "Good"}, {"measurement": "Survival rate (%)", "setting": "[4]; [10]", "value": 93.3, "unit": "%"}, {"measurement": "Prognosis", "setting": "[4]; [11]", "value": "Good"}, {"measurement": "Survival rate (%)", "setting": "[4]; [11]", "value": 96.6, "unit": "%"}, {"measurement": "Prognosis", "setting": "[4]; [12]", "value": "Good"}, {"measurement": "Survival rate (%)", "setting": "[4]; [12]", "value": 16.6, "unit": "%"}, {"measurement": "Prognosis", "setting": "[4]; [13]", "value": "Good"}, {"measurement": "Survival rate (%)", "setting": "[4]; [13]", "value": 90, "unit": "%"}, {"measurement": "Death rate of the newborn piglets (%)", "setting": "[5]", "value": 75.1, "unit": "%"}, {"measurement": "Disease incidence of the new born piglets (%)", "setting": "[5]", "value": 85, "unit": "%"}, {"measurement": "Disease incidence (%)", "setting": "[6]; care pigs", "value": 3.3, "unit": "%"}, {"measurement": "Prognosis", "setting": "[6]; care pigs", "value": "Excellent"}, {"measurement": "Survival rate (%)", "setting": "[6]; care pigs", "value": 96.6, "unit": "%"}, {"measurement": "Disease incidence (%)", "setting": "[6]; finishing pigs", "value": 0, "unit": "%"}, {"measurement": "Prognosis", "setting": "[6]; finishing pigs", "value": "Excellent"}, {"measurement": "Survival rate (%)", "setting": "[6]; finishing pigs", "value": 98.3, "unit": "%"}, {"measurement": "Disease incidence (%)", "setting": "[6]; weaned piglets", "value": 6.6, "unit": "%"}, {"measurement": "Prognosis", "setting": "[6]; weaned piglets", "value": "Excellent"}, {"measurement": "Survival rate (%)", "setting": "[6]; weaned piglets", "value": 96.6, "unit": "%"}, {"measurement": "Prognosis", "setting": "[7]; [10]", "value": "Good"}, {"measurement": "Survival rate (%)", "setting": "[7]; [10]", "value": 96.6, "unit": "%"}, {"measurement": "Prognosis", "setting": "[7]; [12]", "value": "Good"}, {"measurement": "Survival rate (%)", "setting": "[7]; [12]", "value": 93.6, "unit": "%"}, {"measurement": "Prognosis", "setting": "[7]; [13]", "value": "Good"}, {"measurement": "Survival rate (%)", "setting": "[7]; [13]", "value": 96.6, "unit": "%"}, {"measurement": "Prognosis", "setting": "[8]; [10]", "value": "General"}, {"measurement": "Survival rate (%)", "setting": "[8]; [10]", "value": 43.3, "unit": "%"}, {"measurement": "Survival rate (%)", "setting": "[8]; [12]", "value": 0, "unit": "%"}, {"measurement": "treatment effect on the pseudorabies viral diarrhea", "setting": "[8]; summary of Table 5", "value": "no treatment effect"}]}, {"compound": "povidone iodine", "values": [{"measurement": "improvement of survival rate", "setting": "[9]", "value": "5-10%"}]}]}
